Test [1] concerns Nmrk2 promoter. Briefly: Nmrk2 promoter luciferase reporter assay in NRC. The test is classed as cell-based, rat. The following applies: for activity of the Nmrk2 promoter (p3009-Luc): NRC co-transfected with PPARα and RXR expression vectors; for Nmrk2 promoter induction by AICAR: NRC, p3009-Luc, antagonist added 30 minutes before AICAR for 24 h. On the procedure: Isolation and Treatments of Neonatal Rat Cardiomyocytes (NRC) NRC were isolated as described previously (Diguet et al., 2011). 1-day-old rat pups were killed by decapitation and the cardiac ventricles were harvested and minced into 1 to 2-mm wide cubes with scissors. After washing with Tyrode solution, heart fragments were subjected up to 10 rounds of digestion with 0.05 mg/ml of Liberase Blendzyme 4 (Roche Applied Science) in 10 ml oxygenated Tyrode solution under agitation at 37° C. for 10 minutes. The supernatant of the first digestion was discarded and the following digestions were centrifuged and the cell pellet dissociated in 2 ml of DMEM, 10% FCS. The different fractions were pooled and centrifuged on a discontinuous Percoll gradient (bottom 58.5%. top 40.5%. 30 min. 3000 rpm) to enrich in cardiomyocytes at the interface between the 2 Percoll solutions. Non cardiac cells containing mainly fibroblasts were at the top of the tubes. Neonatal cardiomyocytes were seeded at a density 5×10^5 cells/well in 6-well plates coated with 10 μg/ml of laminin (BD Biosciences) in DMEM without pyruvate, with glucose 4.5 g/l, 10% horse serum, 5% FCS and cultured at 37° C. in 1% CO, atmosphere. To assay the impact on NAD^+ and Nmrk2 expression, Azaserin and FK866 drugs were added in the culture medium at day 5 and renewed everyday when the treatment was prolonged over several days. The same was done for NAD^+, NR and AICAR (5-aminoimidazole-4-carboxamide-1-β-D-ribofuranoside). AICAR was administrated for 24 h only. Doses are indicated in the legends. For treatment of transfected cells (see next section), AICAR, FK866 and PPAR agonists and antagonist were administrated 1 day after transfection. PPAR agonists: GW7647 for PPARα, GW501516 for PPARβ/δ and GW1929 for PPARγ; PPAR antagonists: GW6471 PPARα, GSK3787 for PPARβ/δ and GW9662 for PPARγ were ordered from SIGMA ALDRICH CHIMIE, Saint Quentin Fallavier, France.
The transcription initiation site of mouse Nmrk2 promoter was determined by 5′RACE and was conform to the reported site in the Genebank (NM_027120.2). The promoter of the mouse Nmrk2 gene was cloned from C57B16/N genomic DNA by PCR, and inserted into a pGL4.10[luc2] luciferase reporter plasmid (Promega prod no E6651). Subsequent deletions were performed by enzymatic digestion or primer mediated subcloning of the original fragment. 2.5×10^5 cardiomyocytes in 12-well plates were co-transfected at day 2 of culture with 1 μg of Nmrk2 pGL4.10[luc2] constructs and 100 ng of pGL4.73[hRluc/SV40] Vector (Promega prod no E6911) as an internal control of transfection efficiency using Lipofectamine 2000 (Lifetechnology) as indicated by the supplier. In the case of AICAR treatment, Luciferase activity was analyzed 48 h later with the Dual-Luciferase Assay System (Promega).
The pcDNA3 vectors harboring dominant negative AMPK, PPARα, PPARβ and PPARγ as well as RXR genes were kindly provided by Pr. Michel Raymondjean (El Hadri et al. (2015). AMPK Signaling Involvement for the Repression of the IL-1beta-Induced Group IIA Secretory Phospholipase A2 Expression in VSMCs. Journal 10, e0132498; Ravaux et al. (2007). Inhibition of interleukin-1 beta-induced group 11A secretory phospholipase A2 expression by peroxisome proliferator-activated receptors (PPARs) in rat vascular smooth muscle cells: cooperation between PPARbeta and the proto-oncogene BCL-6. Journal 27, 8374-8387; Woods et al. (2000). Characterization of the role of AMP-activated protein kinase in the regulation of glucose-activated gene expression using constitutively active and dominant negative forms of the kinase. Journal 20, 6704-6711). These vectors were cotransfected at a dose of 100 ng/well in 24-well plates with 500 ng of Nmrk2 luciferase constructs.
(In a reporter assay the amount or activity of a reporter protein is the signal.)

Test [2] has as its system SRF^HKO hearts. The test can be described thus: Transcriptomic analysis of SRF HKO hearts after phenylephrine administration. The test is classed as in vivo, mouse. From the text: (§1) Transgenic mice. All experiments with animals conformed to the Directive 2010/63/EU of the European Parliament and were approved by the ethics committee Charles Darvin #5 (agreement 00369.01). SRF^HKO mice bear the tamoxifen-inducible α-MHC-MerCrMer transgene and the Siffloxed allele (Sf/Sf) as described previously (Parlakian et al. (2005). Temporally controlled onset of dilated cardiomyopathy through disruption of the SRF gene in adult heart. Journal 112, 2930-2939; Tritsch et al. (2013). An SRF/miR-1 axis regulates NCX1 and Annexin A5 protein levels in the normal and failing heart. Journal 98, 372-380). Transgenic mice have been bred for more than 20 generations in C57BL/6N background. The mice were housed in standard animal facility (CEF. Hôpital Pitié Salpétrière, agreement A-75-13-15, 75013 Paris), under a 12-h dark/light cycle. Tamoxifen (Sigma T5648) was administrated by i.p. injection at a dose of 0.7 mg diluted in 100 μl peanut oil at day (D) 0, D1 and D2. (Sf/Sf) littermates injected with tamoxifen at the same time than mutant were used as controls.
(§2) The series of mice treated with PE and the impact of the treatment on cardiac parameters have been published previously (Tritsch et al. (2013). An SRF/miR-1 axis regulates NCX1 and Annexin A5 protein levels in the normal and failing heart. Journal 98, 372-380). Briefly. […]

Test [3] has as its system control hearts. The test can be described thus: Transcriptomic analysis of control hearts after phenylephrine administration. The class given is in vivo, mouse. As to conditions: PE 80 mg/kg/day for 15 days.
Text: as §1, §2

The subject of test [4] is Lmna^H222P/H222P mice. The test can be described thus: NAD+ content quantification in heart and liver of treated Lmna H222P/H222P mice. The following applies: NAM 500 mg/kg/q.a.d. IP, from 17 weeks of age for 9 weeks, vs placebo. The class given is in vivo, mouse. On the procedure:
Mice were bred in an accredited animal facility (accreditation number: C-75-13-08). All experiments on mice were approved by the Comité d'éthique en expérimentation animate Charles Darwin No 5. Mice Lmna^H222P/H222P were backcrossed 8 times to 129S2/SvPasOrlRj strain mice to obtain pure genetic background. Male mice used for the studies were maintained under a 12 h light/12 h dark cycle at constant temperature (23° C.) with free access to food and water. Nicotinamide riboside (NR) complementation: Animals at 17 weeks of age were fed for 9 weeks with either a chow diet (A04: Scientific Animal Food & Engineering) or a chow diet complemented with 0.25% of NR (kindly provided by ChromaDex, Inc. California) corresponding to a dose of 400 mg/kg/day for a mouse weighing 25 g eating 4 g of food per day. […]
Fresh mouse tissues were homogenized and processed according to previous report (Sander B J, Oelshlegel F J & Brewer G J (1976) Quantitative analysis of pyridine nucleotides in red blood cells: a single-step extraction procedure. Anal. Biochem. 71: 29-36). The concentration of NAD+ in heart tissue was determined using a spectrophotometric assay at 550 nm based on an alcohol dehydrogenase cycling reaction, in which a Methyl Thiazolyl Tetrazolium (MTT) is reduced to Formazan. […]

For test [5], the system named is Lmna^H222P/H222P mice. Briefly: Echocardiography and heart size in treated Lmna H222P/H222P mice. The class given is in vivo, mouse. As to conditions: NAM 500 mg/kg/q.a.d. IP, 9 weeks, vs placebo. On the procedure:
(§3) Mice were bred in an accredited animal facility (accreditation number: C-75-13-08). All experiments on mice were approved by the Comité d'éthique en expérimentation animate Charles Darwin No 5. Mice Lmna^H222P/H222P were backcrossed 8 times to 129S2/SvPasOrlRj strain mice to obtain pure genetic background. Male mice used for the studies were maintained under a 12 h light/12 h dark cycle at constant temperature (23° C.) with free access to food and water. Nicotinamide riboside (NR) complementation: Animals at 17 weeks of age were fed for 9 weeks with either a chow diet (A04: Scientific Animal Food & Engineering) or a chow diet complemented with 0.25% of NR (kindly provided by ChromaDex, Inc. California) corresponding to a dose of 400 mg/kg/day for a mouse weighing 25 g eating 4 g of food per day. Nicotinamide (NAM) treatment: Animals at 17 weeks of age were injected intraperitoneally (IP) every two days (q.a.d.) for 9 weeks with either physiologic serum or physiologic serum added with NAM at 50 mg/ml corresponding to a dose of 500 mg/kg for a mouse weighing 25 g.
Mouse transthoracic echocardiography was performed using an ACUSON 128XP/10 ultrasound with a 11 Mhz linear probe (Mountain View).MHz transducer applied to the chest wall. Mice were maintained under anesthetized with 0.75% isoflurane anaesthesia (0.75% in O2) and placed on a heating pad (25° C.). Left ventricular (LV) parameters were obtained from M-mode recordings in a modified short axis view. The intra ventricular septum (IVS), LV posterior wall (LVPW), LV diameter (LVD) in diastole and systole, the percentage of fractional shortening (FS) and the heart rate (HR) were measured from the mean of at least three separate cardiac cycles. A “blinded” echocardiographer, unaware of the genotype and the treatment, performed the examinations.

Test [6] deals with Lmna^H222P/H222P mice. The test can be described thus: qPCR of cardiac remodeling markers Myh7, Nppa, Col1a2 in heart. The class given is in vivo, mouse. As to conditions: NAM 500 mg/kg/q.a.d. IP, 9 weeks. The method, then: as §3
Total RNAs were extracted from around 5 mg of mouse heart using RNeasy Mini kit (Qiagen). RNAs integrity were controlled on the Bioanalyzer 2100 (Agilent). […] Relative mRNA transcript levels calculated using the 2^ΔCT method were normalized by comparison to housekeeping mRNA.
For orientation: In qPCR the cycle at which signal appears reflects the starting amount.

The subject of test [7] is SRF^HKO mice. Briefly: RT-qPCR gene expression in SRF HKO heart. The test is classed as in vivo, mouse. The following applies: i.p. administration from D8 to D15.
Text: as §1
Nicotinamide and nicotinamide riboside i.p. administration. Nicotinamide was diluted in saline at 300 mM. Nicotinamide riboside (NR) bromide salt stock solution (1M) was in 10 mM citric acid pH 6.0. For injection 3 volumes of NR stock solution was mixed extemporaneously with 7 volumes of PBS to obtain a 300 mM injectable solution at pH 7.2. Mice were injected daily at a dose of 1 μmole/g body weight.
SRF^HKO and control (Sf/Sf) mice were administered either rodent maintenance SAFE A04 diet containing 3.10% crude fat. 16.10% crude proteins. 26% starch and 1.9% sugar (Scientific Animal Food Engineering, Paris, France) or SAFE # A04 diet supplemented with NR. NR was provided by Chromadex under brand name NIAGEN (Irvine Calif. USA). The soft pellets were manually prepared every 5 days by mixing 1.65 g of NR into 500 g of powdered SAFE A04 diet and 235 ml of water to reach 2.24 mg of NR/g (wet weight). Control diet was prepared in the same way omitting NR. Mice had ad libitum access to food and water. Mice (average body weight 31.3±0.82 g, no difference between groups) consumed an average of 6 g of soft food per day, reaching a daily intake of 450 mg NR/kg. No difference in food intake was observed between SRF^HKO and control mice.
cDNAs were reverse transcribed from RNA (1.5 μg) extracted in TRIzol (Thermofisher) from cell cultures and tissues using the Superscript II Reverse Transcriptase (Life Technologies). Quantitative PCR was carried out on a Light Cycler 480 (Roche Diagnostics) using Fast Start SYBR Green Master (Roche Diagnostics). Quantification of gene expression was calculated as R=2^ΔCt(Ref Cp−target Cp), with Hprt used as a as reference. Primers were designed using the NCBI Primer-BLAST software. Primer sequences are available on request.

Results on six compounds are retold here after patent US20190350955A1, “METHODS AND PHARMACEUTICAL COMPOSITIONS FOR THE TREATMENT OF CARDIOMYOPATHIES” (INSERM (Institut National de la Sante et de la Recherche …, priority 2016, published 2019).

On to `CCC(=O)NC[C@H](Cc1ccc(OCCc2nc(-c3ccccc3)oc2C)cc1)N/C(C)=C\C(=O)c1ccc(C(F)(F)F)cc1` [G6471], for which, in test [1] (antagonist 10 μM), the “activity of the Nmrk2 promoter (p3009-Luc)” value is on record as “repressed”. Further, the “Nmrk2 promoter induction by AICAR” value in test [1] is “blunted”.

Turning to `CNC[C@H](O)c1cccc(O)c1` [PE, phenylephrin], the Nmrk2 expression in test [2] (PE 80 mg/kg/day for 15 days, SRF HKO hearts) is 57 fold; in test [3], 4 fold. Moreover, the “Nampt and Pnp expression” value in test [2] (PE treatment) is recorded as “depressed”.

Turning to `NC(=O)c1cccnc1` [NAM, Nicotinamide], the “NAD+ content in liver and heart” value in test [4] is “did not exhibit any changes”. Further, in test [5], the cardiac contractility entry is recorded as “no significant changes”, the “left-ventricular end diastolic diameter” value is reported as “no significant changes” and the “left-ventricular end systolic diameter” value was “no significant changes”. Moreover, in test [6], the “expression of Myh7, Nppa and Col1a2” value was “no changed expression”. Also, the “Srf and Nmrk2 expression levels” value in test [7] was “not changed”.

Regarding `O=C(Nc1ccccc1)c1cc([N+](=O)[O-])ccc1Cl` [G9662], the “Nmrk2 promoter induction by AICAR” value in test [1] is “Neither the PPARβ antagonist GSK3787 nor the PPARγ antagonist G9662 had any effect”.

Take `CC(C)(Sc1ccc(CCN(CCCCC2CCCCC2)C(=O)NC2CCCCC2)cc1)C(=O)O` [GW7647]: the “activity of the Nmrk2 promoter (p3009-Luc)” value in test [1] (agonist 0.6 μM) is “increased”.

As for `O=C(NCCS(=O)(=O)c1ccc(C(F)(F)F)cn1)c1ccc(Cl)cc1` [GSK3787], the “Nmrk2 promoter induction by AICAR” value in test [1] is “Neither the PPARβ antagonist GSK3787 nor the PPARγ antagonist G9662 had any effect”.
